Target: T1, human AT1 receptor (Homo sapiens, UniProt P30556)
T1 construct: expressed in transfected cells; host or cells: CHO-K1
T1 sequence (P30556 1-359): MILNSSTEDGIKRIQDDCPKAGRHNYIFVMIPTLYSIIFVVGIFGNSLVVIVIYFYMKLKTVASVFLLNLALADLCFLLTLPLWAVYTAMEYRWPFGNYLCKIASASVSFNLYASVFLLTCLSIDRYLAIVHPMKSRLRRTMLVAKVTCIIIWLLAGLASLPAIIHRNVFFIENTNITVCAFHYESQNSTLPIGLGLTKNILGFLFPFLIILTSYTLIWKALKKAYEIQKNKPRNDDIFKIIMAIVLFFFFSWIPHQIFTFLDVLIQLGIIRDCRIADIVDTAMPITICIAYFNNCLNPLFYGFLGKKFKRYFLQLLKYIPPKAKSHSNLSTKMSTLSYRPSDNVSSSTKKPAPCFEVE
Experiment: AT1 radioligand binding assay (Assay 1)
Conditions: displacement of [Eu]AngII 2 nM, membranes of CHO-K1 cells expressing human AT1 receptor
Procedure: These in vitro assays were used to assess the ability of test compounds to bind to the AT1 and the AT2 receptors.
Chinese hamster ovary (CHO-K1) derived cell lines stably expressing the cloned human AT1 or AT2 receptors, respectively, were grown in HAM's-F12 medium supplemented with 10% fetal bovine serum, 10 μg/ml penicillin/streptomycin, and 500 μg/ml geneticin in a 5% CO2 humidified incubator at 37° C. AT2 receptor expressing cells were grown in the additional presence of 100 nM PD123,319 (AT2 antagonist). When cultures reached 80-95% confluence, the cells were washed thoroughly in PBS and lifted with 5 mM EDTA. […]
Binding assays were performed in 96-well Acrowell filter plates (Pall Inc., cat. #5020) in a total assay volume of 100 μL, with 0.2 μg membrane protein for membranes containing the human AT1 receptor, or 2 μg membrane protein for membranes containing the human AT2 receptor in assay buffer (50 mM Tris/HCl pH 7.5 at 20° C., 5 mM MgCl2, 25 μM EDTA, 0.025% BSA). […] Non-specific binding was determined in the presence of 10 μM unlabeled angiotensin-II. […] Filter-bound [Eu]AngII was quantitated immediately on a Fusion plate reader (PerkinElmer) using Time Resolved Fluorescence (TRF). Binding data were analyzed by nonlinear regression analysis with the GraphPad Prism Software package (GraphPad Software, Inc., San Diego, Calif.) using the 3-parameter model for one-site competition. […]

## 4′-2-Butyl-4-chloro-5-[((S)-2-mercaptomethyl-4-methylpentanoylamino)methyl]imidazol-1-ylmethylbiphenyl-2-carboxylic Acid [Example 1]
  pKi at the AT1 receptor: greater than 7.0

— patent publication US8349875B2, “Dual-acting antihypertensive agents” (Theravance, Inc., priority 2007, dated 2013)
